Results: patent US20090325904A1, “MALEIC ACID MONOSALT OF ANTIVIRAL AGENT AND PHARMACEUTICAL COMPOSITION CONTAINING THE SAME” (LG Life Sciences Ltd., priority 2007, published 2009)
Converted amounts (≈) assume the structure as drawn. Read-outs that look alike come from different tables or passages of the source.

What was measured:
[1] = Stability under heat and moisture, 40°C/75% RH (residual content by HPLC); format: physicochemical
Description: (§1) Contents of the free base of 3-[({1-[(2-amino-9H-purin-9-yl)methyl]cyclopropyl}oxy)methyl]-8,8-dimethyl-3,7-dioxo-2,4,6-trioxa-3λ5-phosphanon-1-yl-pivalate and salts thereof were measured by high performance liquid chromatography (HPLC). The specific measuring conditions are fisted below:
After 1, 4 and 8 weeks, 5 mg of each sample was taken, dissolved in a solvent mixture of tetrahydrofuran/water (1/1, v/v), and analyzed by HPLC.

[2] = Stability at 60°C (residual content by HPLC); conditions: for residual content: 60°C (about 4% RH)
Description: as §1
After 1 or 2, 4 and 8 weeks, each sample in the glass vial was taken, dissolved in a solvent mixture of tetrahydrofuran/water (1/1, v/v), and analyzed by HPLC.

[3] = tested on: hepatitis B virus; assay: In vitro anti-HBV activity, HBV DNA by real-time PCR in HepG2.2.15 culture medium; format: cell-based
Description: (§2) The hepatitis B virus-producing cell line, HepG2.2.15 (M. A. Shels, et al., Proc. Natl. Acad. Sci. USA 84, 1005 (1987)), was cultured in DMEM (Dulbecco's Modified Eagle Media; Life Technologies) containing 10% FBS (Fetal Bovine Serum), 1% ABAM (Antibiotic-Antimycotic) and Geneticin whose final concentration was measured as 400 μg/ml. The cells were cultured to confluency, treated with trypsin, and distributed to 96 well microplate in a density of 2×10^4 cells/well. After 24 h, the medium was changed and the compound treatment was carried out in intervals of 2 days by serially diluting the free base of Comparative Example 1 and the maleic acid monosalt of Example by three fold so that the final concentration was 50 μM to 8 nM in 200 μl of medium. Every test samples were duplicated. After 8 days from the first drug treatment, the culture medium was collected, and the cells were lysed by heating the cells to 100° C. for 10 min. In order to minimize the substances that interfere with the DNA amplification reaction, the culture medium was diluted by ten fold using water. The control group, cell culture medium which was not treated with the drug, was treated in the same manner as the above.

[4] = tested on: HepG2.2.15; assay: Cytotoxicity determination (MTT); conditions: for cytotoxicity: HepG2.2.15
Description: as §2
(§3) CC50 value of the drug was determined by removing the medium, adding 100 μl of 0.1 mg/ml MTT (Thiazolyl Blue Tetrazolium Bromide: Sigma) to the residue, dyeing the residue for 2 h at 37° C., adding 100 μl of DMSO (Dimethyl Sulfoxide: Sigma), dissolving the resulting mixture by agitating for 2 h at room temperature, and measuring the absorbance at 540 nm.

[5] = Solubility test at various pH; format: physicochemical; conditions: for solubility at 1.5 h: phosphate buffer / phosphoric acid solution, aqueous buffer, thermodynamic from solid
Description: 5˜23 mg each of the maleic acid monosalt of the Example and the free base of Comparative Example 1 was placed into a glass bottle. 500 μl each of the various phosphate buffer solution and phosphoric acid solution having a specific pH value was added thereto. The glass bottle was placed in water to maintain a constant temperature of 25° C., and the mixture was stirred for 1.5 h. After filtration, the content in the filtrate was analyzed by HPLC, and the pH of the solution was measured. The measured pH values and the solubilities of the maleic acid monosalt and the free base are represented in the following Table 3.

[6] = Hygroscopicity (no method described); format: physicochemical
[7] = Cytotoxicity determination (MTT); conditions: human
Description: as §2, §3

Question: Which results are given for `CC(C)(C)C(=O)OCOP(=O)(COC1(Cn2cnc3cnc(N)nc32)CC1)OCOC(=O)C(C)(C)C.O=C(O)/C=C\C(=O)O.O=C(O)/C=C\C(=O)O.O=C(O)/C=C\C(=O)O` [Comparative Example 2, 3-[({1-[(2-amino-9H-purin-9-yl)methyl]cyclopropyl}oxy)methyl]-8,8-dimethyl-3,7-dioxo-2,4,6-trioxa-3λ5-phosphanon-1-yl-pivalate maleic acid trisalt]?
Answer: residual content ([1]; Week 1): 84.4%; residual content ([1]; Week 4): 0.0%; residual content ([1]; Week 8): 0.0%

Question: Which residual content ([1]; Week 1) does the source give for `CC(C)(C)C(=O)OCOP(=O)(COC1(Cn2cnc3cnc(N)nc32)CC1)OCOC(=O)C(C)(C)C.CS(=O)(=O)O` [Comparative Example 5, 3-[({1-[(2-amino-9H-purin-9-yl)methyl]cyclopropyl}oxy)methyl]-8,8-dimethyl-3,7-dioxo-2,4,6-trioxa-3λ5-phosphanon-1-yl-pivalate methanesulfonic acid monosalt] here?
Answer: Its residual content is 50.7%.

Question: What about the residual content ([1]; Week 4) of the same compound?
Answer: The residual content was 0.0%.

Question: And the residual content ([1]; Week 8)?
Answer: The residual content was 0.0%.

Question: With `CC(C)(C)C(=O)OCOP(=O)(COC1(Cn2cnc3cnc(N)nc32)CC1)OCOC(=O)C(C)(C)C.Cc1ccc(S(=O)(=O)O)cc1.Cc1ccc(S(=O)(=O)O)cc1` [Comparative Example 4, 3-[({1-[(2-amino-9H-purin-9-yl)methyl]cyclopropyl}oxy)methyl]-8,8-dimethyl-3,7-dioxo-2,4,6-trioxa-3λ5-phosphanon-1-yl-pivalate p-toluenesulfonic acid disalt] as the compound, how does the residual content ([1]; Week 1) read?
Answer: Its residual content is 0.0%.

Question: And the residual content ([1]; Week 4)?
Answer: The residual content was 0.0%.

Question: What about the residual content ([1]; Week 8) of the same compound?
Answer: The residual content was 0.0%.

Question: Which residual content ([2]; Week 1) does the source give for `CC(C)(C)C(=O)OCOP(=O)(COC1(Cn2cnc3cnc(N)nc32)CC1)OCOC(=O)C(C)(C)C.CCS(=O)(=O)O` [Comparative Example 7, 3-[({1-[(2-amino-9H-purin-9-yl)methyl]cyclopropyl}oxy)methyl]-8,8-dimethyl-3,7-dioxo-2,4,6-trioxa-3λ5-phosphanon-1-yl-pivalate ethanesulfonic acid monosalt] here?
Answer: The residual content was 0.4%.

Question: With `CC(C)(C)C(=O)OCOP(=O)(COC1(Cn2cnc3cnc(N)nc32)CC1)OCOC(=O)C(C)(C)C` [Comparative Example 1, Free Base of 3-[({1-[(2-amino-9H-purin-9-yl)methyl]cyclopropyl}oxy)methyl]-8,8-dimethyl-3,7-dioxo-2,4,6-trioxa-3λ5-phosphanon-1-yl-pivalate] as the compound, how does the EC50 ([3]; HepG2.2.15, 8 days, HBV DNA in culture medium, read-out: EC50) read?
Answer: The EC50 was 1.1 ± 0.1 µM.

Question: What about the residual content ([1]; Week 1) of the same compound?
Answer: The residual content was 99.0%.

Question: What about the residual content ([1]; Week 4) of the same compound?
Answer: Its residual content is 91.3%.

Question: What about the residual content ([1]; Week 8) of the same compound?
Answer: Its residual content is 8.4%.

Question: And the “cytotoxicity” value [4]?
Answer: The value was “about 7 m M”.

Question: What about the CC50 ([4]; HepG2.2.15, MTT) of the same compound?
Answer: The CC50 was 7.9 ± 3 µM.

Question: What about the residual content ([2]; Week 1) of the same compound?
Answer: The residual content was 98.2%.

Question: What about the residual content ([2]; Week 4) of the same compound?
Answer: The residual content was 79.2%.

Question: And the residual content ([2]; Week 8)?
Answer: Its residual content is 1.2%.

Question: What about the residual content ([2]; Week 8, listed as free base) of the same compound?
Answer: Its residual content is “about 1%”.

Question: And the solubility ([5]; pH 6 or more)?
Answer: Its solubility is at most 1000 µg/mL.

Question: What about the solubility ([5]; pH of 2 or less) of the same compound?
Answer: The solubility was at least 36000 µg/mL.

Question: And the solubility ([5]; solution pH 2.0, 25°C)?
Answer: The solubility was 36500 µg/mL (≈ 69.2 mM).

Question: What about the solubility ([5]; solution pH 3.2, 25°C) of the same compound?
Answer: The solubility was 8300 µg/mL (≈ 15.7 mM).

Question: What about the solubility ([5]; solution pH 4.0, 25°C) of the same compound?
Answer: Its solubility is 1700 µg/mL (≈ 3.22 mM).

Question: What about the solubility ([5]; solution pH 6.5, 25°C) of the same compound?
Answer: The solubility was 800 µg/mL (≈ 1.52 mM).

Question: With `CC(C)(C)C(=O)OCOP(=O)(COC1(Cn2cnc3cnc(N)nc32)CC1)OCOC(=O)C(C)(C)C.Cc1ccc(S(=O)(=O)O)cc1` [Comparative Example 3, 3-[({1-[(2-amino-9H-purin-9-yl)methyl]cyclopropyl}oxy)methyl]-8,8-dimethyl-3,7-dioxo-2,4,6-trioxa-3λ5-phosphanon-1-yl-pivalate p-toluenesulfonic acid monosalt] as the compound, how does the residual content ([1]; Week 1) read?
Answer: The residual content was 96.5%.

Question: And the residual content ([1]; Week 4)?
Answer: The residual content was 71.0%.

Question: With `CC(C)(C)C(=O)OCOP(=O)(COC1(Cn2cnc3cnc(N)nc32)CC1)OCOC(=O)C(C)(C)C.O=S(=O)(O)c1ccc2ccccc2c1` [Comparative Example 6, 3-[({1-[(2-amino-9H-purin-9-yl)methyl]cyclopropyl}oxy)methyl]-8,8-dimethyl-3,7-dioxo-2,4,6-trioxa-3λ5-phosphanon-1-yl-pivalate naphthalenesulfonic acid monosalt] as the compound, how does the residual content ([2]; Week 2) read?
Answer: Its residual content is 74.7%.

Question: For `CC(C)(C)C(=O)OCOP(=O)(COC1(Cn2cnc3cnc(N)nc32)CC1)OCOC(=O)C(C)(C)C.O=C(O)/C=C\C(=O)O` [Example, 3-[({1-[(2-amino-9H-purin-9-yl)methyl]cyclopropyl}oxy)methyl]-8,8-dimethyl-3,7-dioxo-2,4,6-trioxa-3λ5-phosphanon-1-yl-pivalate maleic acid monosalt], which EC50 ([3]; Hepatitis B virus, HepG2.2.15, 192 h) is on record?
Answer: Its EC50 is 1.2 ± 0.3 µM.

Question: And the EC50 ([3]; Hepatitis B virus, HepG2.2.15, read-out: activity (in vitro, summary in text))?
Answer: Its EC50 is about 1 µM.

Question: And the hygroscopicity [6]?
Answer: The hygroscopicity was “non-hygroscopic”.

Question: What about the residual content ([1]; Week 1) of the same compound?
Answer: The residual content was 99.4%.

Question: What about the residual content ([1]; Week 4) of the same compound?
Answer: Its residual content is 99.3%.

Question: And the residual content ([1]; Week 8)?
Answer: Its residual content is 98.3%.

Question: What about the CC50 at 8 days [7] of the same compound?
Answer: Its CC50 at 8 days is 6.8 ± 2.4 µM.

Question: What about the “cytotoxicity” value [4] of the same compound?
Answer: The value was “about 7 m M”.

Question: What about the residual content ([2]; Week 1) of the same compound?
Answer: Its residual content is 99.4%.

Question: And the residual content ([2]; Week 4)?
Answer: Its residual content is 99.2%.

Question: What about the residual content ([2]; Week 8) of the same compound?
Answer: The residual content was 98.2%.

Question: And the “thermal stability (decomposition, in words)” value ([2]; 60°C, stressed condition)?
Answer: Its value is “remained almost intact without decomposition for up to 8 weeks”.

Question: And the “solubility relative to the free base” value ([5]; pH 6.5)?
Answer: Its value is “three times higher”.

Question: And the solubility at 1.5 h ([5]; 25 °C, pH range of 2 to 6.5)?
Answer: The solubility at 1.5 h was 3000 to 7000 µg/mL.

Question: And the solubility at 1.5 h ([5]; solution pH 2.0, 25°C)?
Answer: Its solubility at 1.5 h is 5600 µg/mL.

Question: And the solubility at 1.5 h ([5]; solution pH 3.2, 25°C)?
Answer: Its solubility at 1.5 h is 7000 µg/mL.

Question: What about the solubility at 1.5 h ([5]; solution pH 4.0, 25°C) of the same compound?
Answer: The solubility at 1.5 h was 4200 µg/mL.

Question: What about the solubility at 1.5 h ([5]; solution pH 6.5, 25°C) of the same compound?
Answer: The solubility at 1.5 h was 2900 µg/mL.
